Laboratory results taken from publication PMC6026870, “Selective induction of cancer cell death by VDAC1‐based peptides and their potential use in cancer therapy” (Molecular Oncology, 2018).

How the values were obtained:
A549 cells = test: Apoptosis, acridine orange/ethidium bromide staining; type: cell-based, human; settings: A549, 3 h; quantitation, mean ± SE (n = 3) (Fig. 5E)
Protocol: For PI and annexin V–FITC staining, A549 or MDA‐MB‐231 cells, untreated or treated with VDAC1‐based peptides, were collected (1500 g for 5 min), washed, and resuspended in 200 μL binding buffer (10 mM HEPES/NaOH (pH 7.4), 140 mM NaCl, and 2.5 mM CaCl2). Annexin V–FITC staining was performed according to the recommended protocol. Cells were then washed once with binding buffer and resuspended in 200 μL binding buffer, to which PI was added immediately before flow cytometric analysis. At least 10 000 events were collected, recorded on a dot plot, and analyzed by flow cytometer. Acridine orange/ethidium bromide staining was carried as described previously (Zaid et al., 2005), with cells visualized by fluorescence microscopy (Olympus LX2‐KSP, Tokyo, Japan), and images were captured with a CCD camera. About 200 cells were counted for each experiment.

HK‐I = molecular target: T1, HK‐I (Homo sapiens, UniProt P19367); test: HK activity assay with purified recombinant HK‐I; type: biochemical; settings: HK‐I 13 µg/ml pre‐incubated with peptide; 1 mM ATP, G6PDH‐coupled, absorbance at 340 nm (Fig. S3B)
T1 construct: His; made in house; host or cells: Escherichia coli BL21
T1 sequence (P19367 1-917): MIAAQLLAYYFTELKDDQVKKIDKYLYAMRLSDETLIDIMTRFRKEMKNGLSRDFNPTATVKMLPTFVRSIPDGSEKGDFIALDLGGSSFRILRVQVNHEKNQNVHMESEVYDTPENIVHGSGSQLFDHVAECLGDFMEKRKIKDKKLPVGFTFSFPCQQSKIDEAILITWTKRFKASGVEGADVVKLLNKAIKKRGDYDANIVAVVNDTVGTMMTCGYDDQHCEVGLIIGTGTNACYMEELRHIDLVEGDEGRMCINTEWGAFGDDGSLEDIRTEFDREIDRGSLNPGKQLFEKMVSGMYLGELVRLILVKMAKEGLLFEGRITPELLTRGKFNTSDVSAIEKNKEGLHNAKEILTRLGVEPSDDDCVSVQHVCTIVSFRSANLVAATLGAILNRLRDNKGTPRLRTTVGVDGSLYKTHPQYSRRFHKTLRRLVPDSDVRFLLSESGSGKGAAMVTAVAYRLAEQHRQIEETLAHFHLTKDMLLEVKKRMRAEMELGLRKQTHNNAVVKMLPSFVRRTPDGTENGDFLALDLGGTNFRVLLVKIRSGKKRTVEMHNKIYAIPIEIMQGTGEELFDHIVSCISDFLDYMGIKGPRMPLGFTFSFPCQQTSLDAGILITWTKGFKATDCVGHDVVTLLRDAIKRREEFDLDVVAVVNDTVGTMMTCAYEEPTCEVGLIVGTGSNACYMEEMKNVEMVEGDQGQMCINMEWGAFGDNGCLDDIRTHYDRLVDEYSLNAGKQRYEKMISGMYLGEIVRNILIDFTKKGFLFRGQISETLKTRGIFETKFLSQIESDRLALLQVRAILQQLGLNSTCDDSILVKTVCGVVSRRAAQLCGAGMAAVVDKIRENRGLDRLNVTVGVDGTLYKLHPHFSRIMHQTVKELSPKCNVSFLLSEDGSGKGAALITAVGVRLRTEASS
Protocol: Human HK‐I and HK‐II were cloned into plasmid pET‐His DNA and expressed in Escherichia coli BL21 upon IPTG induction. HK was purified from lysed cells using a HiTrap nickel column (GE Healthcare). Following dialysis, the imidazole‐eluted protein was further purified using a Blue HiTrap column (GE Healthcare). HK was eluted using 10 mM glucose, 20 mM Tris/HCl (pH 8.5), 20% glycerol, and 1.5 mM glucose‐6‐phosphate. Fractions were analyzed by SDS/PAGE and tested for HK activity. The purified active fractions were combined and stored in aliquots at −80 °C.
Change in absorbance at 340 nm (NADH production) was spectrophotometrically measured following addition of 1 mM ATP and 0.05 unit·mL^−1 glucose‐6‐phosphate dehydrogenase.
Purified HK-I (13 µg/ml) was pre-incubated with the indicated concentrations of Tf-D-LP4 (●) or R-Tf-D-LP4 (○) and assayed for HK activity as described in Materials and Methods. Change in absorbance at 340 nm (NADH production) was spectrophotometrically measured following addition of 1 mM ATP, and 0.05 unit/ml glucose-6-phosphate dehydrogenase. C. Tf-D-LP4 and R-Tf-D-LP4 solubility. The peptides were dissolved to a final concentration of 5 mM in 5% DMSO and diluted to 1.1 mM in HBSS. Peptide absorbance in the supernatant was measured at 280 nm following centrifugation at 12,000g before and after 75 min incubation at 24 °C. […] Cell death was analyzed using PI and FACS analysis. […]

CC[C@H](C)[C@H](NC(=O)[C@H](Cc1ccc(O)cc1)NC(=O)[C@@H]1CCCN1C(=O)[C@H](CCCNC(=N)N)NC(=O)[C@H](Cc1c[nH]cn1)NC(=O)[C@@H](CO)NC(=O)[C@@H](Cc1c[nH]c2ccccc12)NC(=O)[C@H](NC(=O)[C@@H](Cc1c[nH]c2ccccc12)NC(=O)[C@@H](CCC(=O)O)NC(=O)[C@@H](CCCCN)NC(=O)[C@@H](CCCCN)NC(=O)[C@@H](CC(C)C)NC(=O)[C@@H](CCC(=O)O)NC(=O)[C@H](NC(=O)[C@@H](C)NC(=O)[C@H](NC(=O)[C@@H](CC(N)=O)NC(=O)[C@@H](CC(C)C)NC(=O)[C@@H](C)NC(=O)[C@@H](Cc1c[nH]c2ccccc12)NC(=O)[C@H](NC(=O)[C@@H](C)NC(=O)CNC(=O)[C@@H](CC(N)=O)NC(=O)[C@@H](CO)NC(=O)[C@@H](CC(N)=O)NC(=O)[C@@H](CCCCN)NC(=O)[C@@H](Cc1c[nH]c2ccccc12)NC(=O)[C@H](NC(=O)[C@@H](Cc1c[nH]c2ccccc12)NC(=O)[C@H](N)CCCCN)[C@H](C)O)[C@H](C)O)C(C)C)[C@H](C)O)[C@H](C)O)C(=O)N[C@@H](C)C(=O)N[C@@H](Cc1c[nH]cn1)C(=O)O [R‐Tf‐D‐LP4]
apoptotic cell death (acridine orange/ethidium bromide) (A549 cells): over 70% | inhibition of purified HK‐I activity (HK‐I): inhibits HK-I activity
